Earlier results, collected in patent US20140050728A1, “METHODS AND COMPOSITIONS FOR INHIBITING CYCLOPHILIN D FOR THE TREATMENT AND PREVENTION OF OBESITY AND KIDNEY INDICATIONS” (BOARD OF REGENTS OF THE UNIVERSITY OF NEBRASKA, priority 2011, published 2014).

Details: for weight loss in clinical trials: none of the trials achieved the NIH effectiveness threshold

Row | Structure (SMILES) | weight loss in clinical trials | cardiovascular risk associated with use (banned in Europe, cautioned by U.S. FDA)
1 | CCCCCCCCCCC[C@@H](C[C@@H]1OC(=O)[C@H]1CCCCCC)OC(=O)[C@H](CC(C)C)NC=O [orlistat] | modest weight loss | –
2 | CC(C)CC(N(C)C)C1(c2ccc(Cl)cc2)CCC1 (stereo not drawn) [sibutramine] | modest weight loss | increased cardiovascular risk
